Zone of inhibition, Activity and MIC data for 13 molecules are collected here from ChEMBL document CHEMBL1158350, “Physicochemical and biological characterization of novel macrocycles derived from o-phthalaldehyde” (2009).

In assay [1] the test system is Staphylococcus aureus. The assay can be described thus: Antibacterial activity against Staphylococcus aureus MTCC 96 at 1000 ug/ml after 24 hrs by agar diffusion method. Type of assay: functional. The settings on record: MTCC 96, 24 h, read-out: IZ. (Agar diffusion results depend on both activity and mobility in agar.)
The test system of assay [2] is Aspergillus flavus. The assay can be described thus: Antifungal activity against Aspergillus flavus at 1000 ug/ml after 3 days by diffusion method. Type of assay: functional, organism-based.
For assay [3], the system named is Aspergillus flavus. Put plainly: Antifungal activity against Aspergillus flavus at 500 ug/ml after 3 days by diffusion method. It is filed as functional, organism-based.
In assay [4] the test system is Klebsiella pneumoniae. Put plainly: Antibacterial activity against Klebsiella pneumoniae MTCC 109 at 1000 ug/ml after 24 hrs by agar diffusion method. The settings on record: MTCC 109, 24 h, read-out: IZ. Type of assay: functional.
Assay [5] concerns Fusarium. Put plainly: Antifungal activity against Fusarium at 500 ug/ml after 3 days by diffusion method. Type of assay: functional, organism-based.
Assay [6] relates to Fusarium. The assay can be described thus: Antifungal activity against Fusarium at 1000 ug/ml after 3 days by diffusion method. It is filed as functional, organism-based.
Assay [7] deals with Bacillus subtilis. The assay can be described thus: Antibacterial activity against Bacillus subtilis MTCC 619 at 1000 ug/ml after 24 hrs by agar diffusion method. It is filed as functional. The settings on record: MTCC 619, 24 h, read-out: IZ.
The test system of assay [8] is Escherichia coli. Put plainly: Antibacterial activity against Escherichia coli MTCC 722 at 1000 ug/ml after 24 hrs by agar diffusion method. Type of assay: functional. The settings on record: MTCC 722, 24 h, read-out: IZ.
For assay [9], the system named is Bacillus subtilis. The assay can be described thus: Antibacterial activity against Bacillus subtilis MTCC 619 after 24 hrs by liquid dilution method. The settings on record: MTCC 619, 24 h. It is filed as functional.
Assay [10] has as its system Klebsiella pneumoniae. The assay can be described thus: Antibacterial activity against Klebsiella pneumoniae MTCC 109 after 24 hrs by liquid dilution method. Type of assay: functional. The conditions noted are these: MTCC 109, 24 h.
The subject of assay [11] is Staphylococcus aureus. The assay can be described thus: Antibacterial activity against Staphylococcus aureus MTCC 96 after 24 hrs by liquid dilution method. The settings on record: MTCC 96, 24 h. It is filed as functional.
Assay [12] deals with Escherichia coli. The assay can be described thus: Antibacterial activity against Escherichia coli MTCC 722 after 24 hrs by liquid dilution method. The settings on record: MTCC 722, 24 h. It is filed as functional.

Molecules are shown by their SMILES. Converted amounts (≈) assume the structure as drawn. The source made the active and inactive calls. The rule behind the calls is not given here.

For `Cc1cccc2c1/N=C/c1ccccc1/C=N/c1c(C)cccc1OCCO2`, the zone of inhibition at 1000 µg/mL worked out at 14 mm in [1], 12 mm in assay [4], 12 mm in assay [7] and 11 mm in assay [8]. The outcome in [2], in assay [3], in assay [5] and in [6] was Active.

Turning to `Cc1ccc2c(c1)/N=C/c1ccccc1/C=N/c1cc(C)ccc1OCCO2`, the zone of inhibition at 1000 µg/mL in assay [1] worked out at 12 mm; in assay [4], 10 mm; in assay [7], 14 mm; in assay [8], 13 mm. For the same molecule, the outcome in assay [2], in assay [3], in assay [5] and in [6] was Active.

Regarding `Cc1cccc2c1/N=C/c1ccccc1/C=N/c1c(C)cccc1OCCCO2`, the zone of inhibition at 1000 µg/mL in [1] turned out to be 15 mm; in assay [4], 11 mm; in assay [7], 13 mm; in assay [8], 12 mm. Further, the outcome in assay [2], in [3], in assay [5] and in assay [6] was Active.

As for `Cc1ccc2c(c1)/N=C/c1ccccc1/C=N/c1cc(C)ccc1OCCCO2`, the zone of inhibition at 1000 µg/mL in assay [1] is 14 mm; in [4] it was 12 mm; in assay [7] it was 13 mm; in assay [8], 11 mm. Further, the result in [2], in [3], in [5] and in [6] was Active.

As to `C1=N/c2ccccc2OCCOc2ccccc2/N=C/c2ccccc2/1`, the zone of inhibition at 1000 µg/mL in assay [1] worked out at 12 mm; in [4], 12 mm; in [7] it was 11 mm; in [8], 10 mm. For the same molecule, the outcome in assay [2], in assay [3], in assay [5] and in assay [6] was Active.

In the case of `C1=N/c2cc3ccccc3cc2OCCCOc2cc3ccccc3cc2/N=C/c2ccccc2/1`, the zone of inhibition at 1000 µg/mL came to 14 mm in assay [1], 11 mm in [4], 13 mm in assay [7] and 13 mm in [8]. The result in assay [2], in [3], in assay [5] and in [6] was Active.

As for `C1=N/c2ccccc2OCCCOc2ccccc2/N=C/c2ccccc2/1`, the zone of inhibition at 1000 µg/mL in [1] came out at 11 mm; in assay [4] it was 12 mm; in assay [7], 10 mm; in assay [8] it was 11 mm. The result in [2], in assay [3], in assay [5] and in assay [6] was Active.

As usually defined, the MIC is the lowest concentration that inhibits growth of the organism. Low values mean a more susceptible organism, high ones a less susceptible organism. Turning to `C1=N/c2ncccc2OCCCOc2cccnc2/N=C/c2ccccc2/1`, the zone of inhibition at 1000 µg/mL amounted to 30 mm in [1], 29 mm in assay [4], 35 mm in [7] and 32 mm in [8]. Moreover, the result in [2], in assay [3], in assay [5] and in assay [6] was Active. Also, the MIC in assay [9] came out at 10 µg/mL (≈ 27.9 µM); in assay [10] it was 2 µg/mL (≈ 5.58 µM); in assay [11], 2 µg/mL (≈ 5.58 µM); in [12], 2 µg/mL (≈ 5.58 µM).

`C1=N/c2ncccc2OCCOc2cccnc2/N=C/c2ccccc2/1`: the zone of inhibition at 1000 µg/mL came out at 35 mm in assay [1], 32 mm in assay [4], 38 mm in [7] and 40 mm in assay [8]. The result in assay [2], in assay [3], in assay [5] and in assay [6] was Active. Moreover, the MIC in assay [9] came out at 10 µg/mL (≈ 29 µM); in assay [10], 2 µg/mL (≈ 5.81 µM); in assay [11], 5 µg/mL (≈ 14.5 µM); in assay [12], 1 µg/mL (≈ 2.9 µM).

As for `CC1(C)S[C@@H]2[C@H](NC(=O)[C@H](N)c3ccccc3)C(=O)N2[C@H]1C(=O)O` [AMPICILLIN], the zone of inhibition at 1000 µg/mL in [1] came out at 13 mm; in assay [4] it was 7 mm; in assay [7] it was 11 mm; in [8] it was 8 mm.

For the molecule `CN[C@@H]1[C@H](O[C@H]2[C@H](O[C@H]3[C@H](O)[C@@H](O)[C@H](N=C(N)N)[C@@H](O)[C@@H]3N=C(N)N)O[C@@H](C)[C@]2(O)C=O)O[C@@H](CO)[C@H](O)[C@H]1O` [STREPTOMYCIN], the zone of inhibition at 1000 µg/mL in assay [1] was 12 mm; in assay [4] it was 6 mm; in assay [7], 10 mm; in assay [8], 6 mm. In assay [9], this molecule gave an MIC of 2 µg/mL (≈ 3.44 µM).

For `CO[C@H]1/C=C/O[C@@]2(C)Oc3c(C)c(O)c4c(O)c(c(/C=N/N5CCN(C)CC5)c(O)c4c3C2=O)NC(=O)/C(C)=C\C=C\[C@H](C)[C@H](O)[C@@H](C)[C@@H](O)[C@@H](C)[C@H](OC(C)=O)[C@@H]1C` [RIFAMPIN], the zone of inhibition at 1000 µg/mL in assay [1] amounted to 49 mm; in [4], 45 mm; in assay [7] it was 51 mm; in [8], 48 mm. Further, the minimal inhibitory concentration (MIC) in assay [9] was 10 µg/mL (≈ 12.2 µM); in assay [10], 0.25 µg/mL (≈ 0.304 µM); in [11], 0.25 µg/mL (≈ 0.304 µM); in [12], 0.25 µg/mL (≈ 0.304 µM).

On to `C1=N/c2cc3ccccc3cc2OCCOc2cc3ccccc3cc2/N=C/c2ccccc2/1`, for which the zone of inhibition at 1000 µg/mL is 15 mm in [1], 14 mm in [4], 15 mm in assay [7] and 14 mm in [8]. The result in assay [2], in [3], in [5] and in [6] was Active.
